The compounds below were run against T1, human renal renin (Homo sapiens, UniProt P00797) (assay: inhibition of human renal renin in vitro, angiotensin I formed measured by radioimmunoassay). Conditions: human angiotensinogen substrate, 37 degrees C, pH 6.0.
T1 construct: human renal renin, free from acid proteolytic activity; from tissue; host or cells: human kidney (from the word 'renal')
T1 sequence (P00797 67-406): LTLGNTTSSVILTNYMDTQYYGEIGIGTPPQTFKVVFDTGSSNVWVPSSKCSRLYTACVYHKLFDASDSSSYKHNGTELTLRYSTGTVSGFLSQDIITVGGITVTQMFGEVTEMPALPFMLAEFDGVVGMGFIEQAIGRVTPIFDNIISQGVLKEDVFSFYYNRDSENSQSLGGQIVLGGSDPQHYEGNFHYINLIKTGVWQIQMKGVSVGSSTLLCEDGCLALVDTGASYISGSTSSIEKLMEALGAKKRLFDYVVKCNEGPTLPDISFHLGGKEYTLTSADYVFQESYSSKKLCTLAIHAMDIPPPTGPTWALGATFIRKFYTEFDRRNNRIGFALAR
Format: biochemical
Procedure: At the end of the incubation, the amount of angiotensin I formed is measured by radioimmunoassay and the molar concentration required to cause 50% inhibition, expressed as the IC50, is calculated.
Compound CC(C)C[C@H](O)[C@H](O)[C@H](CC1CCCCC1)NC(=O)[C@H](Cc1c[nH]cn1)NC(=O)c1ccc2ccccc2c1 [Example 151, N-(2-Napthoyl)-His Amide of 2(S)-Amino-1-cyclohexyl-3(R),4(S)-dihydroxy-6-methylheptane] has an IC50 of 32 nM.
CC(C)C[C@H](O)[C@H](O)[C@H](CC1CCCCC1)NC(=O)[C@H](Cc1c[nH]cn1)NC(=O)c1nc2ccccc2s1 [Example 45, N-(Benzothiazolyl-2-carbonyl)-His Amide of 2(S)-Amino-1-cyclohexyl-3(R),4(S)-dihydroxy-6-methylheptane] showed an IC50 of 31 nM.
With CC(C)C[C@H](O)[C@H](O)[C@H](CC1CCCCC1)NC(=O)[C@H](CCC(=O)OCc1ccccc1)NC(=O)c1cc2ccccc2[nH]1 [Example 37, N-(Indolyl-2-carbonyl)-γ-benzyl-Glu Amide of 2(S)-Amino-1-cyclohexyl-3(R),4(S)-dihydroxy-6-methylheptane] the IC50 was 130 nM.
O=C(N[C@@H](Cc1c[nH]cn1)C(=O)NCC(O)CO)c1[nH]c2ccccc2c1CCCC1CCCCC1 (stereo partly shown) [Example 125, N-[3-(3-Cyclohexylpropyl)indolyl-2-carbonyl]-His Amide of 3-Amino-1,2-propanediol] gave an IC50 of 3800 nM.
In the case of CCN1C[C@@H]([C@H](O)[C@H](CC2CCCCC2)NC(=O)C(Cc2cscn2)N2Cc3c([nH]c4ccccc34)C2=O)OC1=O (stereo partly drawn) [Example 88, (1'RS,2"S,3"R,5"'S)-2-[1-[N-[1-Cyclohexyl-3-hydroxy-3-(3-ethyloxazolidin-2-on-5-yl)-2-propyl]carbamoyl]-2-(4-thiazolyl)ethyl]-1,2,3,4-tetrahydropyrrolo[3,4-b]indol-3-one], the IC50 is reported as 28 nM.
For CC(C)C[C@H](O)[C@H](O)[C@H](CC1CCCCC1)NC(=O)[C@H](Cc1c[nH]cn1)N1Cc2c([nH]c3ccccc23)C1=O [Example 58, (1'S,2"S,3"R,4"S)-2-[1-[N-(1-Cyclohexyl-3,4-dihydroxy-6-methyl-2-heptyl)carbamoyl]-2-(4-imidazolyl)ethyl]-1,2,3,4-tetrahydropyrrolo[3,4-b]indol-3-one], the IC50 was 8.2 nM.
Compound CC(C)C[C@H](O)[C@H](O)[C@H](CC1CCCCC1)NC(=O)[C@H](Cc1cscn1)N1Cc2c([nH]c3ccccc23)C1=O [Example 81, (1'S,2"S,3"R,4"S)-2-[1-[N-(1-cyclohexyl-3,4-dihydroxy-6-methyl-2-heptyl)carbamoyl]-2-(4-thiazolyl)ethyl]-1,2,3,4-tetrahydropyrrolo[3,4-b]indol-3-one] has an IC50 of 5 nM.
